# Assay results from ChEMBL document CHEMBL1157539, “Thousands of chemical starting points for antimalarial lead identification” (Nature, 2010).
# Test system: Plasmodium falciparum
# Assay: GSK_TCMDC: Inhibition of Plasmodium falciparum 3D7 in whole erythrocytes, using parasite LDH activity as an index of growth.
# Format: functional, organism-based
Structure (SMILES),"XC50 (Plasmodium falciparum, 3D7) [nM]",XC50 [nM]
C=CCNc1cc(-c2ccccn2)nc(-c2ccccn2)n1,472,
N#Cc1ccc(Sc2nnc(-c3ccccc3Cl)n2CC2CCCCC2)cc1[N+](=O)[O-],1160,
Cc1cccc(CNc2nc(C)cc(NCCC(=O)NCCOc3ccccc3)n2)c1,871,
O=[N+]([O-])c1ccc(N2CCCN(C(=S)Nc3ccc(F)cc3Br)CC2)nc1,302,
COc1ccc(C2(CNCC(O)c3cccc([N+](=O)[O-])c3)CCCCC2)cc1OC (stereo not given),957,
Cc1cccc2nc(-c3cccc(-c4cccc(NC(=O)c5ccoc5)c4)c3)[nH]c12,219,
CC[C@H]1CN2CC[C@@H]1C[C@H]2[C@H](O)c1cc(N2CCC(N3CCCCC3)CC2)nc2ccc(OC)cc12,267,
Cc1nnsc1C(=O)Nc1ccc(-c2ccc(-c3nc4ccccc4[nH]3)s2)cc1,825,
CCN(CC)S(=O)(=O)c1ccc(C(C)NC(=O)c2ccccc2COc2ccccc2)cc1 (stereo not given),330,
N#Cc1ccc(-c2ccc(C(=O)NCCCCN3CCC(c4cn(CCO)c5ccccc45)CC3)cc2)cc1,954,
Cc1cccc2nc(-c3ccc(-c4ccc(CN5CCN(CCO)CC5)cc4)cc3)[nH]c12,599,
CCOc1ccc(Nc2cc(C)nc(Nc3ccc(OCC)cc3)n2)cc1,869,
CC[C@H]1CN2CCc3cc(OC)c(OC)cc3[C@@H]2C[C@@H]1CC1=NCCc2c1[nH]c1ccc(OCc3ccccc3)cc21,772,
COc1ccc(C(=O)CCC(=O)N(Cc2ccc(-c3ccc(CNCc4cccnc4)cn3)cc2)C2CCN(Cc3ccccc3)CC2)cc1F,978,
CCC(NC[C@@H](O)[C@H](Cc1ccccc1)NC(=O)c1cc(C2CCCC2)cc(N2CCCC2=O)c1)c1cccc(Cl)c1 (stereo not given in full),35.2,
COc1ccc(-c2ccccc2)cc1NC(=S)NC1CCC(CN2CCC(c3c[nH]c4ccccc34)CC2)CC1 (stereo not given),652,740
O=C(CCc1c[nH]cn1)Nc1cccc(-c2ccc(-c3nc4ccccc4[nH]3)cc2)c1,651,
COc1ccc(CNC(=O)NC2CCN(c3ccnc(Nc4ccc(F)cc4)n3)CC2)cc1,1050,
CC(C)(C)C(Cn1ccnc1)NCc1c[nH]nc1-c1ccc(-c2ccccc2)cc1 (stereo not given),1060,
CCn1c(-c2cc(C)on2)nc2cnc(Oc3ccc(C(=O)N4CC(=O)N(C)C4C(C)(C)C)cc3)cc21 (stereo not given),1820,
O=c1cc(NCCC(CNCc2ccoc2)NCc2cc(Br)cc(Br)c2)[nH]c2ccccc12 (stereo not given),910,

Structure (SMILES),"XC50 (Plasmodium falciparum, 3D7) [nM]",XC50 [nM]
CCCCCCOc1ccc(N2C(N)=NC(N)=NC2(C)C)cc1,344,
O=C(/C=C/c1ccc(Cl)c(Cl)c1)N1CCN(C(=O)Nc2ccc(C(F)(F)F)cc2)CC1,666,
O=C(/C=C/c1ccc(Cl)c(Cl)c1)NCCCCCN1CCC(NC(=O)Nc2ccc(Cl)cc2F)CC1,313,
CN1CCOc2ccc(Nc3nnc(-c4cccc(-c5cccnc5)c4)o3)cc2C1,104,
O=C(Nc1ccc(Cl)cc1)c1cccc(S(=O)(=O)NC2CCN(CC3CCCCC3)C2)c1 (stereo not given),905,
COc1cccc(NC(=O)c2cc(C(=O)Nc3cccc(OC)c3)cc([N+](=O)[O-])c2)c1,661,
COc1ccc(CN2CCN(C(=O)c3cccs3)CC2)c(O)c1,838,
N#Cc1c(N2CCCCCC2)nc(N)c2c(N)nc3c(c12)CC(=O)N3c1ccc(F)cc1,213,
COc1ccc(Br)cc1/C=C/C(=O)Nc1cccc(C2CCN(C)CC2)c1,523,
c1ccc2[nH]c(-c3ccc(-c4ccc(CN5CCN(CCN6CCOCC6)CC5)cc4)s3)nc2c1,280,
CCN(CC)c1nc(Nc2cc(C)ccc2C)nc(Nc2ccccc2O)n1,641,
CCCc1ccc(Cc2cnc3nc(N)nc(N)c3c2C)cc1,283,
CN(Cc1cc(C(F)(F)F)cc(C(F)(F)F)c1)C(=O)C1CNCC1c1ccc(F)cc1 (stereo not given),828,
c1cc(-c2nc3ccccc3[nH]2)nc(-c2nc3ccccc3[nH]2)c1,1120,
COC(=O)C(=O)c1c(-c2ccccc2)c(-c2ccc(OC)c(OC)c2)c2c3cc(OC)c(OC)cc3ccn12,636,
N#Cc1cccc(Nc2nccc(NCC(O)c3ccc(C(F)(F)F)cc3)n2)c1 (stereo not given),556,
COc1ccc(CNc2cc(C)nc3sc4c(c23)CCC2(C4)OCCO2)cc1,953,
COc1ccc2c(=O)c(-c3ccc(OC(F)(F)F)cc3)c(C)[nH]c2c1,233,
CN(C)CCNCc1cccc(-c2ccc3c(Nc4ccc(Oc5ccccc5)cc4)ccnc3c2)c1,441,
Cc1ccc(NC(=O)c2ccc3nccnc3c2)cc1OC1CCN(Cc2ccc(F)cc2)CC1,1010,
O=C1COC2(CN1C1CCN(Cc3ccc(O)c(Cl)c3)C1)c1ccccc1-c1ccccc12 (stereo not given),960,

Structure (SMILES),"XC50 (Plasmodium falciparum, 3D7) [nM]",XC50 [nM]
COc1ccc2nccc([C@@H](O)CN3CCC(NC(=O)C(c4ccccc4C)N4CCC(Cc5ccccc5)CC4)CC3)c2c1 (stereo not given in full),261,
Cc1ccc(-c2nc3cc(C(=O)NC4CCN(Cc5ccccc5)CC4)ccc3[nH]2)cc1,744,
COc1ccc(N2C(=O)C3C(C2=O)C2(C)c4ccccc4C3(C)c3ccccc32)c([N+](=O)[O-])c1 (stereo not given),720,
CC(C)CNCc1ccc(OCc2cccc(COc3ccc(CNCC(C)C)cc3I)c2)c(I)c1,772,
Cc1[nH]c(CNCCCNc2cc(=O)c3ccccc3[nH]2)c(Br)c1Br,1040,
COc1nc2c(CCN3CCC(NCc4ccc5c(c4)NC(=O)CO5)CC3)c(Cl)cnc2cc1F,771,
O=C(NC1CC1)c1ccc(N2CCCC(COc3ccccc3F)C2)nc1 (stereo not given),897,
Cc1[nH]c2ccccc2c1C1=CCN(CCCCC2(C)C(=O)Nc3cccc(F)c32)CC1 (stereo not given),364,
COc1ccc2nccc([C@@H](O)CN3CCC(NCCOc4cc(F)cc(F)c4)CC3)c2c1,155,
CCCNC(=O)c1cncc(-c2ccc(CNCCCc3ccccc3)cc2)c1,688,
CCS(=O)(=O)Nc1ccc2[nH]cc(C3CCN(CCC4CCN(C(=O)/C=C/c5ccc(Cl)c(Cl)c5)CC4)CC3)c2c1,534,
COc1ccc(-c2csc(C(=O)NC3CCC(N4CCC(c5ccccc5C)CC4)CC3)c2)cc1 (stereo not given),378,
Cc1ccc2cc(NC(=O)c3cccc(C(=O)Nc4ccc5nc(C)ccc5c4)n3)ccc2n1,1170,
CCCC(C)NC(=O)[C@H](Cc1ccccc1)NC(=O)c1ccc(O)c(-c2ccc(OC)cc2)c1 (stereo not given in full),1240,
CC(CN)OCn1cnc2c(N)ncnc21 (stereo not given),231,
Cc1ccc(Nc2nc(-c3ccccn3)cs2)nc1,752,
CC[C@H]1CN2CC[C@H]1C[C@@H]2[C@@H](OC(=O)c1ccc(Cl)cc1)c1ccnc2ccc(OC)cc12,922,
CCOC(=O)c1cccc(NC(=O)Nc2cc(C)nc3ccccc23)c1,286,
O=S(=O)(/C=C/c1ccccc1)N(Cc1ccc(-c2ccc(CNCCc3ccccc3)cc2)cc1)CC1CCCCN1 (stereo not given),794,
CN(CCO)Cc1ccc(-c2ccc(NS(=O)(=O)c3cccc4cccnc34)cc2)cc1,795,
COc1cc(C)c(C(O)CNC(C)CCc2ccccc2)cc1C (stereo not given),730,

Structure (SMILES),"XC50 (Plasmodium falciparum, 3D7) [nM]",XC50 [nM]
Cc1cc(NC(=O)[C@H](CC(C)C)Nc2ccc(C#N)c3ccccc23)ccc1F,777,
N#Cc1cccc(NC(=O)Nc2cccc(-c3cccc(-c4nc5cc(F)ccc5[nH]4)c3)c2)c1,225,
COc1ccc(-c2cccc(NC(=O)c3cccc(C#N)c3)c2)cc1CN1CCC(O)CC1,990,
Cc1cccc2nc(-c3ccc(-c4cccc(NC(=O)CN5CCN(C)CC5)c4)s3)[nH]c12,826,
COc1ccc(CNCCCCCNCc2ccc(Cl)c(Cl)c2)cc1Cl,751,
CCCCNC[C@@H](O)[C@H](Cc1ccccc1)NC(=O)c1cc(NCC)cc(N2CCCCS2(=O)=O)c1,398,
COc1cc2ccccc2c(CNCCCCCCNCc2c(OC)c(OC)cc3ccccc23)c1OC,1110,
O=C(NCCN1CCC(c2ccncc2)CC1)c1cccc(Nc2nccc(Nc3ccc(Oc4ccccc4)cc3)n2)c1,168,
COc1cc(OC)cc(-c2nn(-c3ccc([N+](=O)[O-])cc3Cl)c(=S)n2CC2CCCO2)c1 (stereo not given),961,
O=C(Nc1ccc(-c2cccc(-c3nc4cc(C(F)(F)F)ccc4[nH]3)c2)cc1)c1ccncc1,664,
O=C(Nc1ccc(OC2CCN(Cc3ccccc3)CC2)c(Cl)c1)c1ccc(F)cc1,796,
O=C(CN1CCCC1)Nc1cccc(C(=O)Nc2cccc(C(F)(F)F)c2)c1,510,
O=C(Nc1cc(Cl)cc(Cl)c1)c1cc(Cl)c(=O)n(Cc2cccc(Cl)c2)c1,752,
CC(CCc1ccccc1)NCC(O)c1ccc2c3c(cccc13)S(=O)(=O)N2C (stereo not given),627,
Cc1c(CNCCCNc2cc(=O)c3ccccc3[nH]2)sc(C(F)=C(F)F)c1Br,836,
CN(C)Cc1ccc(-c2cccc(Nc3nccc(NCC(O)c4ccccc4)n3)c2)cc1 (stereo not given),373,
CCCCCCn1c(Sc2ccc(C#N)c([N+](=O)[O-])c2)nnc1-c1ccc(OC)cc1,849,
CN(C)CCn1c(=N)n(CC(O)c2ccc(Cl)c(Cl)c2)c2ccccc21 (stereo not given),798,
COc1cc(CNC[C@@H](O)[C@H](Cc2ccccc2)NC(=O)c2cc(C3CCCC3)cc(N3CCCS3(=O)=O)c2)cc(OC)c1,1240,
Cc1cccc2nc(-c3cccc(-c4cccc(NC(=O)CN5CCN(C)CC5)c4)c3)[nH]c12,533,
O=C(NCC1COc2ccccc2O1)c1cnc2c(c1)nc(-c1c[nH]c(-c3ccccc3)n1)n2CCSCc1c(F)cccc1Cl (stereo not given),959,
